From PMC4354951 (European journal of medicinal chemistry, 2008) come the findings set out here.

Structures are written as SMILES. “Also recorded” adds a separate entry of the source.

Data set [1] can be described thus: Chemical hydrolysis under gastric juice-like conditions. Type of data set: physicochemical.
The target of the next data set is T1, human NTPDase2 (Homo sapiens, UniProt Q9Y5L3).
T1 sequence (Q9Y5L3 1-495): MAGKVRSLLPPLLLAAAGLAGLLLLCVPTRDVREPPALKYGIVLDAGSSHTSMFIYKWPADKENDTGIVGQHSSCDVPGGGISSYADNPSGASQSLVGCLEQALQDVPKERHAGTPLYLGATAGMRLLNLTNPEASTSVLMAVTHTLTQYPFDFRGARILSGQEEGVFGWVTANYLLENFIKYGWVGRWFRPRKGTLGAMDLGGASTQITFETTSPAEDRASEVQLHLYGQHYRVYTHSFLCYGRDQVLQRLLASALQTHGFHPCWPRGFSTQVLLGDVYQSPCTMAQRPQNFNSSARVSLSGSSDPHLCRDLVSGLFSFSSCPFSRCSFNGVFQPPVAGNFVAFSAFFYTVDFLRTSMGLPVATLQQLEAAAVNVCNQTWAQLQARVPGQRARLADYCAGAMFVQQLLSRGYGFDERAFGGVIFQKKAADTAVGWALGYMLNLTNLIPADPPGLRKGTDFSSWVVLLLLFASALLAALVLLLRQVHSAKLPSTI
Kind of data set: Hydrolysis by NTPDase2. Type of data set: biochemical. To be noted: 100 μM substrate; relative to ATP hydrolysis (100%).

The next data set deals with T2, human NTPDase8 (Homo sapiens, UniProt Q5MY95).
T2 sequence (Q5MY95 1-495): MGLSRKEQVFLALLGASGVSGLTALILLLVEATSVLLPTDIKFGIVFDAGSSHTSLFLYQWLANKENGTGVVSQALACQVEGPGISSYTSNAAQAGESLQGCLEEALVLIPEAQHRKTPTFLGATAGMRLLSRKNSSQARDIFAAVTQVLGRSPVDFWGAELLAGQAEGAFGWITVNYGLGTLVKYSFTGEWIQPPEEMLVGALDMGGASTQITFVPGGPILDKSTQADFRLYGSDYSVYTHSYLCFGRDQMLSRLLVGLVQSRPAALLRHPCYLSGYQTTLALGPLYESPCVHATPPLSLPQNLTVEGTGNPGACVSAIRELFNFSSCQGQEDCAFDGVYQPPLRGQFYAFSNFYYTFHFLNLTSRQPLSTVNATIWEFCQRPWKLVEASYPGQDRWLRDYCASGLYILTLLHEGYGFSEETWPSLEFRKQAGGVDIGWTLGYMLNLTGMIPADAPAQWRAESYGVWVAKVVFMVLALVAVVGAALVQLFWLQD
Kind of data set: Hydrolysis by NTPDase8. To be noted: 100 μM substrate; relative to ATP hydrolysis (100%). Type of data set: biochemical.

The target in another data set is turkey P2Y1 receptor (Meleagris gallopavo, UniProt P49652). Type of data set: cell-based. To be noted: 1321N1 cell transfectants; for EC50: read-out: EC50 of analogue-induced increase in [Ca2+]i, P2Y1.
Another data set concerns the target human P2Y4 receptor (Homo sapiens, UniProt P51582). Description: Increase in [Ca2+]i in 1321N1 astrocytoma cells expressing P2Y4 receptor. Type of data set: cell-based. To be noted: 1321N1 cell transfectants; for EC50: read-out: EC50 of analogue-induced increase in [Ca2+]i, P2Y4.
The target in a further data set is rat P2Y6 receptor (Rattus norvegicus, UniProt Q63371). Description: Increase in [Ca2+]i in 1321N1 astrocytoma cells expressing P2Y6 receptor. To be noted: 1321N1 cell transfectants; for EC50: read-out: EC50 of analogue-induced increase in [Ca2+]i, P2Y6. Type of data set: cell-based.
Data set [2] can be described thus: Stability in human blood serum, Method B. To be noted: Method B; 37 °C, up to 144 h.

turkey P2Y1 receptor, sequence (P49652 whole entry): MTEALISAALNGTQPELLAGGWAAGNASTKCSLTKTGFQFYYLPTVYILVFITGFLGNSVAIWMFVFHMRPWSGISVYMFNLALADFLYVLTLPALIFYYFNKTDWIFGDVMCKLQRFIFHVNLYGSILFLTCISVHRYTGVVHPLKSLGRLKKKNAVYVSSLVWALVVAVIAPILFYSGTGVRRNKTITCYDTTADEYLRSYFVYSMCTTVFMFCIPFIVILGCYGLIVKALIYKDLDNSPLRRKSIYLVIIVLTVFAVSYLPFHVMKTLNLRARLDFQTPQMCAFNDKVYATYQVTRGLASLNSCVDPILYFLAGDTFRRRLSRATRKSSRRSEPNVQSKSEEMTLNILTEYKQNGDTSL
human P2Y4 receptor, sequence (P51582 whole entry): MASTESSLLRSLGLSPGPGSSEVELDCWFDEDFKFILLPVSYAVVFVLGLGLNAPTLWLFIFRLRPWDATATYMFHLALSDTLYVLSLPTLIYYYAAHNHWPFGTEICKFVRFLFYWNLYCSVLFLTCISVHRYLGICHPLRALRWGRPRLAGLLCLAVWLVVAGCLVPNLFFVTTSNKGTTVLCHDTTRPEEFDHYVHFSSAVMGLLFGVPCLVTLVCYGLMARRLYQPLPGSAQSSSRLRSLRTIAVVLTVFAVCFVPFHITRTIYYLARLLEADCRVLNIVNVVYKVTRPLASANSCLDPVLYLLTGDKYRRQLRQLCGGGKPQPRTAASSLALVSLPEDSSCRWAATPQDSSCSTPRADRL
rat P2Y6 receptor, sequence (Q63371 whole entry): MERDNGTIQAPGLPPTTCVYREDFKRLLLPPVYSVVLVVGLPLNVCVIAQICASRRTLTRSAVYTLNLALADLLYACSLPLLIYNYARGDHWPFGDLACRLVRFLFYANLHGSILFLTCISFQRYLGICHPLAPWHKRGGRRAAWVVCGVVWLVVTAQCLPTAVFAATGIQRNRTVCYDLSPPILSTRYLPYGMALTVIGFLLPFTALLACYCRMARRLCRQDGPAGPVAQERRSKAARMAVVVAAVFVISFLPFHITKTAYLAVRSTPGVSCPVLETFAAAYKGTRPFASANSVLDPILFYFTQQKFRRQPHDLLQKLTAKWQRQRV

As a reminder, the EC50 is the concentration that produces a half-maximal response. In the case of `[BH3-][P+](O)(OC[C@H]1O[C@@H](n2cnc3c(N)ncnc32)[C@H](O)[C@@H]1O)OP(=O)(O)CP(=O)(O)O` (single isomer, unassigned) [3B, Adenosine-5′-O-(α-boranotriphosphate)-β,γ-CH2], the fraction degraded in data set [1] (0.2 M HCl/KCl pH 1.4, 37 °C, after 19 h) worked out at 50%. Moreover, the “t1/2 of acidic hydrolysis” value in data set [1] (KCl/HCl buffer pH 1.4, 37 °C, 31P NMR (2) or HPLC-MS (3B, 4B)) was 19 h. In addition, on human NTPDase2, the “Relative activity of NTPDase2” value is 0%. The “Relative activity of NTPDase8” value at human NTPDase8 is reported as less than 1%. Moreover, at turkey P2Y1 receptor, the “agonist activity at P2Y1R” value is on record as “insignificant activities” and the concentration giving a half-maximal response (EC50) is more than 100 µM. In addition, at human P2Y4 receptor, the “agonist activity at P2Y4R” value is listed as “insignificant activities” and the EC50 was more than 100 µM. Moreover, on rat P2Y6 receptor, the “agonist activity at P2Y6R” value is recorded as “insignificant activities” and the EC50 is more than 100 µM.

For the compound `[BH3-][P+](O)(OC[C@H]1O[C@@H](n2cnc3c(N)ncnc32)[C@H](O)[C@@H]1O)OP(=O)(O)CP(=O)(O)O` (single isomer, unassigned) [3A, Adenosine-5′-O-(α-boranotriphosphate)-β,γ-CH2], the “Relative activity of NTPDase2” value at human NTPDase2 came out at 1.0 ± 0.2%. The “Relative activity of NTPDase8” value on human NTPDase8 stood at 2.0 ± 0.03%. Moreover, on turkey P2Y1 receptor, the “agonist activity at P2Y1R” value was “insignificant activities; also recorded: practically inactive” and the EC50 was more than 100 µM. On human P2Y4 receptor, the “agonist activity at P2Y4R” value is reported as “insignificant activities” and the half-maximal effective concentration (EC50) was more than 100 µM. For the same compound, on rat P2Y6 receptor, the “agonist activity at P2Y6R” value was “insignificant activities” and the half-maximal effective concentration (EC50) is more than 100 µM.

Consider `[BH3-][P+](O)(OC[C@H]1O[C@@H](n2cnc3c(N)nc(SC)nc32)[C@H](O)[C@@H]1O)OP(=O)(O)CP(=O)(O)O` (single isomer, unassigned) [4A, 2-MeS–adenosine-5′-O-(α-boranotriphosphate)-β,γ-CH2], for which, at human NTPDase2, the “Relative activity of NTPDase2” value is 1.0 ± 0.1%. Further, the “Relative activity of NTPDase8” value at human NTPDase8 stood at 4.0 ± 0.02%. At turkey P2Y1 receptor, the “agonist activity at P2Y1R” value was “insignificant activities; also recorded: practically inactive; also recorded: no activity” and the EC50 is more than 100 µM. Also, on human P2Y4 receptor, the “agonist activity at P2Y4R” value is “insignificant activities” and the EC50 was more than 100 µM. Also, at rat P2Y6 receptor, the “agonist activity at P2Y6R” value was “insignificant activities” and the concentration for a half-maximal effect (EC50) is more than 100 µM. In addition, the “resistance to enzymatic hydrolysis in human blood serum” value in data set [2] was “completely resistant to enzymatic hydrolysis for at least 6 days”.
